Measured values from US20250059180A1 (DONG WHA PHARM. CO., LTD., priority 2022, published 2025).
Like-named read-outs stand apart in the source and are kept apart here.

Test system: Pfeiffer cells, lymphoma cells having EZH2 mutation (A677G)
Test: Proliferation inhibition of cells of hematologic malignancies (CCK-8, 11 days)
Type: cell-based
Conditions: 11 days culture, read-out: Cell proliferation inhibitory effect (IC50)
Experimental: The growth inhibitory activity of 1,3-benzodioxole derivative compounds represented by chemical formula I of the present invention against Pfeiffer cells, which are lymphoma cells having EZH2 mutation (A677G), was evaluated.
Pfeiffer was cultured using RPMI1640 containing 10% fetal bovine serum. The cells were inoculated into wells of a 96-well culture dish at 10,000 cells each, and cultured for 11 days after treating with the test material for each concentration. For 11 days, the test material was replaced every three to four days. After culturing, the cells were treated with a cell counting kit-8 (CCK-8) reagent for each well, absorbance was measured at 450 nm, and IC50 values for cell proliferation were obtained through curve fitting of non-linear regression in the GraphPad program (GraphPad Prism 5.0 software).

SMILES	IC50 [nM]	IC50 (Homo sapiens, Pfeiffer, 264 h) [nM]
CSc1cc(C)[nH]c(=O)c1CNC(=O)c1cc(-c2ccc(N3C[C@@H](C)O[C@@H](C)C3)nc2)c2c(c1C)OC(C)(C1CCN(CC(F)(F)F)CC1)O2 (single isomer, unassigned) [Compound 44]	≤ 10	
CSc1cc(C)[nH]c(=O)c1CNC(=O)c1cc(-c2cnc(N(C)C)nc2)c2c(c1C)OC(C)([C@H]1CC[C@H](N(C)CC(F)(F)F)CC1)O2 (stereo partly drawn) [Compound 22, 7-(2-(dimethylamino)pyrimidin-5-yl)-2,4-dimethyl-2-(trans-4-(methyl(2,2,2-trifluoroethyl)amino)cyclohexyl)-N-((6-methyl-4-(methylthio)-2-oxo-1,2-dihydropyridin-3-yl)methyl)benzo[d][1,3]dioxole-5-carboxamide]		≤ 10
CSc1cc(C)[nH]c(=O)c1CNC(=O)c1cc(-c2ccsc2)c2c(c1C)OC(C)([C@H]1CC[C@H](N(C)C)CC1)O2 (stereo partly drawn) [Compound 11, 2-(trans-4-(dimethylamino)cyclohexyl)-2,4-dimethyl-N-((6-methyl-4-(methylthio)-2-oxo-1,2-dihydropyridin-3-yl)methyl)-7-(thiophene-3-yl)benzo[d][1,3]dioxole-5-carboxamide]		≤ 10
CSc1cc(C)[nH]c(=O)c1CNC(=O)c1cc(-c2ccc3c(ccn3C)c2)c2c(c1C)OC(C)([C@H]1CC[C@H](N(C)C)CC1)O2 (stereo partly drawn) [Compound 7, 2-(trans-4-(dimethylamino)cyclohexyl)-2,4-dimethyl-7-(1-methyl-1H-indol-5-yl)-N-((6-methyl-4-(methylthio)-2-oxo-1,2-dihydropyridin-3-yl)methyl)benzo[d][1,3]dioxole-5-carboxamide]		≤ 10
CCN(C)c1ncc(-c2cc(C(=O)NCc3c(SC)cc(C)[nH]c3=O)c(C)c3c2OC(C)(C2CCN(CC(F)F)CC2)O3)cn1 (single isomer, unassigned) [Compound 81, 2-(1-(2,2-difluoroethyl)piperidin-4-yl)-7-(2-(ethyl(methyl)amino)pyrimidin-5-yl)-2,4-dimethyl-N-((6-methyl-4-(methylthio)-2-oxo-1,2-dihydropyridin-3-yl)methyl)benzo[d][1,3]dioxole-5-carboxamide]		≤ 10
CSc1cc(C)[nH]c(=O)c1CNC(=O)c1cc(-c2cnc(N3CCCCC3)nc2)c2c(c1C)OC(C)([C@H]1CC[C@H](N(C)C)CC1)O2 (stereo partly drawn) [Compound 4, 2-(trans-4-(dimethylamino)cyclohexyl)-2,4-dimethyl-N-((6-methyl-4-(methylthio)-2-oxo-1,2-dihydropyridin-3-yl)methyl)-7-(2-(piperidin-1-yl)pyrimidin-5-yl)benzo[d][1,3]dioxole-5-carboxamide]		≤ 10
CSc1cc(C)[nH]c(=O)c1CNC(=O)c1cc(-c2ccc(N3CCOCC3)nc2)c2c(c1C)OC(C)(C1CCN(CC(F)F)CC1)O2 (single isomer, unassigned) [Compound 64, 2-(1-(2,2-difluoroethyl)piperidin-4-yl)-2,4-dimethyl-N-((6-methyl-4-(methylthio)-2-oxo-1,2-dihydropyridin-3-yl)methyl)-7-(6-morpholinopyridin-3-yl)benzo[d][1,3]dioxole-5-carboxamide]	≤ 10	
CSc1cc(C)[nH]c(=O)c1CNC(=O)c1cc(-c2ccc(N3C[C@@H](C)O[C@@H](C)C3)nc2)c2c(c1C)OC(C)(C1CCN(C(=O)C(F)(F)F)CC1)O2 (single isomer, unassigned) [Compound 59]	≤ 10	
CSc1cc(C)[nH]c(=O)c1CNC(=O)c1cc(-c2ccc(N3C[C@@H](C)O[C@@H](C)C3)nc2)c2c(c1C)OC(C)(C1CCN(C(=O)C(F)(F)F)CC1)O2 (single isomer, unassigned) [Compound 60]	≥ 100	
CSc1cc(C)[nH]c(=O)c1CNC(=O)c1cc(-c2ccc(N3C[C@@H](C)O[C@@H](C)C3)nc2)c2c(c1C)OC(C)(C1CCN(CC(F)(F)F)CC1)O2 (stereo partly drawn) [Compound 33, 7-(6-((2S,6R)-2,6-dimethylmorpholino)pyridin-3-yl)-2,4-dimethyl-N-((6-methyl-4-(methylthio)-2-oxo-1,2-dihydropyridin-3-yl)methyl)-2-(1-(2,2,2-trifluoroethyl)piperidin-4-yl)benzo[d][1,3]dioxole-5-carboxamide]		≤ 10
CSc1cc(C)[nH]c(=O)c1CNC(=O)c1cc(-c2ccc(N3CCOCC3)cc2)c2c(c1C)OC(C)([C@H]1CC[C@H](N(C)C)CC1)O2 (stereo partly drawn) [Compound 9, 2-(trans-4-(dimethylamino)cyclohexyl)-2,4-dimethyl-N-((6-methyl-4-(methylthio)-2-oxo-1,2-dihydropyridin-3-yl)methyl)-7-(4-morpholinophenyl)benzo[d][1,3]dioxole-5-carboxamide]		≤ 10
CSc1cc(C)[nH]c(=O)c1CNC(=O)c1cc(-c2cnc(N3C[C@@H](C)O[C@@H](C)C3)nc2)c2c(c1C)OC(C)(C1CCN(CC(F)(F)F)CC1)O2 (stereo partly drawn) [Compound 38, 7-(2-((2S,6R)-2,6-dimethylmorpholino)pyrimidin-5-yl)-2,4-dimethyl-N-((6-methyl-4-(methylthio)-2-oxo-1,2-dihydropyridin-3-yl)methyl)-2-(1-(2,2,2-trifluoroethyl)piperidin-4-yl)benzo[d][1,3]dioxole-5-carboxamide]		≤ 10

Now from value to molecule:

IC50 [nM]	IC50 (Homo sapiens, Pfeiffer, 264 h) [nM]	SMILES
	≤ 10	CSc1cc(C)[nH]c(=O)c1CNC(=O)c1cc(-c2ccc(N3C[C@@H](C)O[C@@H](C)C3)nc2)c2c(c1C)OC(C)([C@H]1CC[C@H](N(C)C)CC1)O2 (stereo partly drawn) [Compound 1, 2-(trans-4-(dimethylamino)cyclohexyl)-7-(6-((2S,6R)-2,6-dimethylmorpholino)pyridin-3-yl)-2,4-dimethyl-N-((6-methyl-4-(methylthio)-2-oxo-1,2-dihydropyridin-3-yl)methyl)benzo[d][1,3]dioxole-5-carboxamide]
≥ 100		CSc1cc(C)[nH]c(=O)c1CNC(=O)c1cc(-c2ccc(N3C[C@@H](C)O[C@@H](C)C3)nc2)c2c(c1C)OC(C)(C1CCN(C(C)C)CC1)O2 (single isomer, unassigned) [Compound 52]
	≤ 10	CSc1cc(C)[nH]c(=O)c1CNC(=O)c1cc(-c2ccc(N3C[C@@H](C)O[C@@H](C)C3)nc2)c2c(c1C)OC(C)(C1CCN(C[C@H](C)O)CC1)O2 (stereo partly drawn) [Compound 40, 7-(6-((2S,6R)-2,6-dimethylmorpholino)pyridin-3-yl)-2-(1-((S)-2-hydroxypropyl)piperidin-4-yl)-2,4-dimethyl-N-((6-methyl-4-(methylthio)-2-oxo-1,2-dihydropyridin-3-yl)methyl)benzo[d][1,3]dioxole-5-carboxamide]
	≤ 10	CSc1cc(C)[nH]c(=O)c1CNC(=O)c1cc(-c2ccc(N3C[C@@H](C)O[C@@H](C)C3)nc2)c2c(c1C)OC(C)(C1CCN(CC(F)F)CC1)O2 (stereo partly drawn) [Compound 46, 2-(1-(2,2-difluoroethyl)piperidin-4-yl)-7-(6-((2S,6R)-2,6-dimethylmorpholino)pyridin-3-yl)-2,4-dimethyl-N-((6-methyl-4-(methylthio)-2-oxo-1,2-dihydropyridin-3-yl)methyl)benzo[d][1,3]dioxole-5-carboxamide]
	≤ 10	CCN(C)[C@H]1CC[C@H](C2(C)Oc3c(-c4ccc(N5C[C@@H](C)O[C@@H](C)C5)nc4)cc(C(=O)NCc4c(SC)cc(C)[nH]c4=O)c(C)c3O2)CC1 (stereo partly drawn) [Compound 111, 7-(6-((2S,6R)-2,6-dimethylmorpholino)pyridin-3-yl)-2-(trans-4-(ethyl(methyl)amino)cyclohexyl)-2,4-dimethyl-N-((6-methyl-4-(methylthio)-2-oxo-1,2-dihydropyridin-3-yl)methyl)benzo[d][1,3]dioxole-5-carboxamide]
	≤ 10	CCCOCCN(C)[C@H]1CC[C@H](C2(C)Oc3c(-c4ccc(N5C[C@@H](C)O[C@@H](C)C5)nc4)cc(C(=O)NCc4c(SC)cc(C)[nH]c4=O)c(C)c3O2)CC1 (stereo partly drawn) [Compound 30, 7-(6-((2S,6R)-2,6-dimethylmorpholino)pyridin-3-yl)-2,4-dimethyl-2-(trans-4-(methyl(2-propoxyethyl)amino)cyclohexyl)-N-((6-methyl-4-(methylthio)-2-oxo-1,2-dihydropyridin-3-yl)methyl)benzo[d][1,3]dioxole-5-carboxamide]
	≤ 10	CSc1cc(C)[nH]c(=O)c1CNC(=O)c1cc(-c2ccc(N3C[C@@H](C)O[C@@H](C)C3)nc2)c2c(c1C)OC(C)([C@H]1CC[C@H](N(C)CC(F)F)CC1)O2 (stereo partly drawn) [Compound 109]
	≤ 10	COC(CN(C)[C@H]1CC[C@H](C2(C)Oc3c(-c4ccc(N5C[C@@H](C)O[C@@H](C)C5)nc4)cc(C(=O)NCc4c(SC)cc(C)[nH]c4=O)c(C)c3O2)CC1)OC (stereo partly drawn) [Compound 31, 2-(trans-4-((2,2-dimethoxyethyl)(methyl)amino)cyclohexyl)-7-(6-((2S,6R)-2,6-dimethylmorpholino)pyridin-3-yl)-2,4-dimethyl-N-((6-methyl-4-(methylthio)-2-oxo-1,2-dihydropyridin-3-yl)methyl)benzo[d][1,3]dioxole-5-carboxamide]
	≤ 10	CSc1cc(C)[nH]c(=O)c1CNC(=O)c1cc(-c2ccc(N3C[C@@H](C)O[C@@H](C)C3)nc2)c2c(c1C)OC(C)([C@H]1CC[C@H](N(C)C[C@H](C)O)CC1)O2 (stereo partly drawn) [Compound 29, 7-(6-((2S,6R)-2,6-dimethylmorpholino)pyridin-3-yl)-2-(trans-4-(((S)-2-hydroxypropyl)(methyl)amino)cyclohexyl)-2,4-dimethyl-N-((6-methyl-4-(methylthio)-2-oxo-1,2-dihydropyridin-3-yl)methyl)benzo[d][1,3]dioxole-5-carboxamide]
